Assay results reported in US4640910A (Abbott Laboratories, priority 1985, dated 1987).
In brackets after ≈: the same amount, converted by molar mass. Like-named read-outs stand apart in the source and are kept apart here.

Columns and labels:
Staph. aureus A 5177 = test: Antimicrobial spectrum, agar dilution MIC; assay type: cell-based; details: Staphylococcus aureus, A5177
Micrococcus luteus 9341 = test: Antimicrobial spectrum, agar dilution MIC; assay type: cell-based
[1] = tested on: Lactobacillus casei ATCC 7469; test: Antimicrobial spectrum, agar dilution MIC; assay type: cell-based; details: Lacticaseibacillus casei, ATCC7469
Strep. pyogenes 930 = test: Antimicrobial spectrum, agar dilution MIC; assay type: cell-based; details: Streptococcus pyogenes, BHI agar, 35°-37° C., 20-24 hours
[2] = tested on: Enterobact. aerogenes ATCC 13048; test: Antimicrobial spectrum, agar dilution MIC; assay type: cell-based
[3] = tested on: Providencia stuartii CMX 640; test: Antimicrobial spectrum, agar dilution MIC; assay type: cell-based; details: CMX640
Ps. aeruginosa BMH10 = test: Antimicrobial spectrum, agar dilution MIC; assay type: cell-based; details: Pseudomonas aeruginosa
Ps. aeruginosa A5007 = test: Antimicrobial spectrum, agar dilution MIC; assay type: cell-based; details: Pseudomonas aeruginosa, BHI agar, 35°-37° C., 20-24 hours
Ps. aeruginosa K799/WT = test: Antimicrobial spectrum, agar dilution MIC; assay type: cell-based; details: Pseudomonas aeruginosa, BHI agar, 35°-37° C., 20-24 hours
Ps. cepacia 2961 = test: Antimicrobial spectrum, agar dilution MIC; assay type: cell-based; details: Burkholderia cepacia
indicated test organism = test: Acute mouse protection test; assay type: in vivo, female, Swiss albino mice; details: 1 and 5 hours post-infection, 7 days, * = highest level tested
Strep. pyogenes = test: Extended mouse protection study; details: oral
Staph. aureus = test: Extended mouse protection study; details: oral
Staph. aureus ATCC 6538P = test: Antimicrobial spectrum, agar dilution MIC; assay type: cell-based; details: Staphylococcus aureus, ATCC6538P, BHI agar, 35°-37° C., 20-24 hours
Staph. aureus CMX 686B = test: Antimicrobial spectrum, agar dilution MIC; assay type: cell-based; details: Staphylococcus aureus, CMX686B, BHI agar, 35°-37° C., 20-24 hours
Staph. epidermidis 3519 = test: Antimicrobial spectrum, agar dilution MIC; assay type: cell-based; details: Staphylococcus epidermidis, BHI agar, 35°-37° C., 20-24 hours
[4] = tested on: Staph. epidermidis 3519 RARI; test: Antimicrobial spectrum, agar dilution MIC; assay type: cell-based; details: Staphylococcus epidermidis
Micrococcus luteus 4698 = test: Antimicrobial spectrum, agar dilution MIC; assay type: cell-based; details: BHI agar, 35°-37° C., 20-24 hours
Strep. faecium ATCC 8043 = test: Antimicrobial spectrum, agar dilution MIC; assay type: cell-based; details: Enterococcus faecium, ATCC8043, BHI agar, 35°-37° C., 20-24 hours
Strep. bovis A5169 = test: Antimicrobial spectrum, agar dilution MIC; assay type: cell-based; details: Streptococcus equinus, BHI agar, 35°-37° C., 20-24 hours
[5] = tested on: Strep. agalactiae CMX 508; test: Antimicrobial spectrum, agar dilution MIC; assay type: cell-based; details: Streptococcus agalactiae, CMX508, BHI agar, 35°-37° C., 20-24 hours
Strep. pyogenes EES61 = test: Antimicrobial spectrum, agar dilution MIC; assay type: cell-based; details: Streptococcus pyogenes, BHI agar, 35°-37° C., 20-24 hours
E. coli JUHL = test: Antimicrobial spectrum, agar dilution MIC; assay type: cell-based; details: Escherichia coli, BHI agar, 35°-37° C., 20-24 hours
E. coli SS = test: Antimicrobial spectrum, agar dilution MIC; assay type: cell-based; details: Escherichia coli, BHI agar, 35°-37° C., 20-24 hours
E. coli DC-2 = test: Antimicrobial spectrum, agar dilution MIC; assay type: cell-based; details: Escherichia coli, DC2, BHI agar, 35°-37° C., 20-24 hours
E. coli H560 = test: Antimicrobial spectrum, agar dilution MIC; assay type: cell-based; details: Escherichia coli, BHI agar, 35°-37° C., 20-24 hours
[6] = tested on: Klebsiella pneumoniae 8045; test: Antimicrobial spectrum, agar dilution MIC; assay type: cell-based; details: BHI agar, 35°-37° C., 20-24 hours
Ps. aeruginosa K799/61 = test: Antimicrobial spectrum, agar dilution MIC; assay type: cell-based; details: Pseudomonas aeruginosa, BHI agar, 35°-37° C., 20-24 hours
[7] = tested on: Acinetobacter sp. CMX 669; test: Antimicrobial spectrum, agar dilution MIC; assay type: cell-based; details: SP.CMX669, BHI agar, 35°-37° C., 20-24 hours
[8] = Stability and release of drug from prodrug in aqueous buffers pH 2 to 12 (dissolution apparatus, HPLC); assay type: physicochemical; details: for conversion to active drug: 37° C.
Protocol: (§1) Samples of 2'-trimethylsilylerythromycin A and 2'-trimethylsilyl-6-O-methylerythromycin A were dissolved in 10-50 ml dimethyl sulfoxide or acetonitrile to give a solution containing 15-75 mg/ml. An aliquot containing 75 mg of prodrug was added to aqueous buffers ranging in pH from 2 to 12 to give a final volume equal to 500 ml. The buffered mixtures were stirred at 37° C. for at least 90 minutes. A standard dissolution test apparatus (Vanderkamp 600, Van-Kel Industries, Inc., 36 Meridian Road, Edisoin, N.J. 08820) was used to provide temperature and stirring rate control.
(§2) Aliquots were taken at 15, 30, 45, 60, 90, 120, 180, 240 and 360 minutes for analysis. Each sample was mixed with an internal standard, adjusted rapidly to pH 9 with 1M tricine buffer and extracted immediately with ethyl acetate. The organic extracts were evaporated and redissolved in a solution of 3% tetrahydrofuran in heptane. Samples of these solutions were injected using an autosampler (WISP 71)B, Waters Chromatography, Division of Millipore, 34 Maple Street, Milford, Mass. 01757). The prodrugs and drugs were separated by high performance liquid chromatography, detected at 225 nm using a spectrophotometer (Spectroflow 773 Absorbence Detector, Kratos Analytical Instruments), and were quantified with a digital integrator.

[9] = Solubility of prodrug in aqueous buffers; assay type: physicochemical
Protocol: as §1, §2

Strep. pneumoniae = test: Extended mouse protection study; details: oral
[10] = carboxymethylcellulose with milk (reduces gastric acid secretion)
[11] = phosphate buffer solution with milk (reduces gastric acid secretion)

Compound CC[C@H]1OC(=O)[C@H](C)[C@@H](O[C@H]2C[C@@](C)(OC)[C@@H](O)[C@H](C)O2)[C@H](C)[C@@H](O[C@@H]2O[C@H](C)C[C@H](N(C)C)[C@H]2O)[C@](C)(O)C[C@@H](C)C(=O)[C@H](C)[C@@H](O)[C@]1(C)O [Erythromycin A, reference compound] has an MIC (Staph. aureus A 5177; Staph. aureus A 5177, BHI agar, 35°-37° C., 20-24 hours, read-out: MIC) of 0.78 µg/mL (≈ 1.06 µM), an MIC (Micrococcus luteus 9341; Micrococcus luteus, 9341) of 0.02 µg/mL (≈ 0.0273 µM) and an MIC [1] of 0.05 µg/mL (≈ 0.0681 µM). The MIC (Strep. pyogenes 930) was 100 µg/mL (≈ 136 µM), the MIC ([2]; Enterobact. aerogenes ATCC 13048, BHI agar, 35°-37° C., 20-24 hours, read-out: MIC) was 100 µg/mL (≈ 136 µM) and the MIC ([3]; Providencia stuartii CMX 640, BHI agar, 35°-37° C., 20-24 hours, read-out: MIC) was 100 µg/mL (≈ 136 µM). The MIC (Ps. aeruginosa BMH10; Ps. aeruginosa BMH10, BHI agar, 35°-37° C., 20-24 hours, read-out: MIC) was 100 µg/mL (≈ 136 µM), the MIC (Ps. aeruginosa A5007) was 100 µg/mL (≈ 136 µM) and the MIC (Ps. aeruginosa K799/WT) was 100 µg/mL (≈ 136 µM). The MIC (Ps. cepacia 2961; Ps. cepacia 2961, BHI agar, 35°-37° C., 20-24 hours, read-out: MIC) was 100 µg/mL (≈ 136 µM), the ED50 (indicated test organism; Mus musculus, po, 168 h, oral administration, read-out: ED50) was 75.7 mg/kg and the ED50 (indicated test organism; Mus musculus, sc, 168 h, subcutaneous administration, read-out: ED50) was 10.9 mg/kg. It also gave an ED50 (indicated test organism; oral administration, 10080 min) of 48.8 mg/kg/day, an ED50 (Strep. pyogenes; phosphate buffer solution) of 37.2 mg/kg/day and an ED50 (Staph. aureus; carboxymethylcellulose) of 86.0 mg/kg/day. It also gave an ED50 (Staph. aureus; phosphate buffer solution) of 75.7 mg/kg/day.
For CC[C@H]1OC(=O)[C@H](C)[C@@H](O[C@H]2C[C@@](C)(OC)[C@@H](O)[C@H](C)O2)[C@H](C)[C@@H](O[C@@H]2O[C@H](C)C[C@H](N(C)C)[C@H]2O[Si](C)(C)C)[C@](C)(OC)C[C@@H](C)C(=O)[C@H](C)[C@@H](O)[C@]1(C)O [Example 3, 2'-O-trimethylsilyl-6-O-methyl-Erythromycin A], the MIC (Staph. aureus ATCC 6538P) was 0.78 µg/mL (≈ 0.951 µM), the MIC (Staph. aureus CMX 686B) was 0.78 µg/mL (≈ 0.951 µM) and the MIC (Staph. aureus A 5177) was 3.1 µg/mL (≈ 3.78 µM). It also gave an MIC (Staph. epidermidis 3519) of 0.78 µg/mL (≈ 0.951 µM), an MIC [4] of 0.39 µg/mL (≈ 0.476 µM) and an MIC (Micrococcus luteus 9341; Micrococcus luteus 9341, BHI agar, 35°-37° C., 20-24 hours, read-out: MIC) of 0.1 µg/mL (≈ 0.122 µM). For the same compound, the MIC (Micrococcus luteus 4698) was 0.39 µg/mL (≈ 0.476 µM), the MIC ([1]; Lactobacillus casei ATCC 7469, BHI agar, 35°-37° C., 20-24 hours, read-out: MIC) was 0.1 µg/mL (≈ 0.122 µM) and the MIC (Strep. faecium ATCC 8043) was 0.2 µg/mL (≈ 0.244 µM). The MIC (Strep. bovis A5169) was 0.1 µg/mL (≈ 0.122 µM), the MIC [5] was 0.1 µg/mL (≈ 0.122 µM) and the MIC (Strep. pyogenes EES61) was 0.05 µg/mL (≈ 0.061 µM). The MIC (Strep. pyogenes 930) was 100 µg/mL (≈ 122 µM), the MIC (E. coli JUHL) was 100 µg/mL (≈ 122 µM) and the MIC (E. coli SS) was 0.39 µg/mL (≈ 0.476 µM). For the same compound, the MIC (E. coli DC-2) was 100 µg/mL (≈ 122 µM), the MIC (E. coli H560) was 100 µg/mL (≈ 122 µM) and the MIC [2] was 100 µg/mL (≈ 122 µM). For the same compound, the MIC [6] was 100 µg/mL (≈ 122 µM), the MIC ([3]; Providencia stuartii) was 100 µg/mL (≈ 122 µM) and the MIC (Ps. aeruginosa BMH10; BMH10) was 100 µg/mL (≈ 122 µM). For the same compound, the MIC (Ps. aeruginosa A5007) was 100 µg/mL (≈ 122 µM), the MIC (Ps. aeruginosa K799/WT) was 100 µg/mL (≈ 122 µM) and the MIC (Ps. aeruginosa K799/61) was 25 µg/mL (≈ 30.5 µM). For the same compound, the MIC (Ps. cepacia 2961; 2961) was 100 µg/mL (≈ 122 µM), the MIC [7] was 50 µg/mL (≈ 61 µM) and the “conversion to active drug” value ([8]; acid pH) was “converted to the active drug 6-O-methylerythromycin A”. The release rates ([8]; pH 3 and 4, 37° C.) was “both dissolution-rate limited release and also release from the initially dissolved material”, the release rates ([8]; pH 5, 6 and 7, 37° C.) was “dissolution-rate limited release” and the decomposition ([8]; pH 7, owing to solubility properties) was “severely restrict its decomposition”. The “conversion to active drug” value ([8]; pH 8 or above) was “Very little or no conversion”, the solubility ([9]; aqueous buffer, pH 2, completely soluble, read-out: solubility) was ≥ 150 µg/mL and the solubility ([9]; neutral or alkaline pH) was “little or no solubility”. It also gave an ED50 (Strep. pyogenes; [10]) of 7.8 mg/kg/day, an ED50 (Strep. pyogenes; phosphate buffer solution) of 12.7 mg/kg/day and an ED50 (Strep. pyogenes; [11]) of 14.1 mg/kg/day. It also gave an ED50 (Staph. aureus; carboxymethylcellulose) of 34.9 mg/kg/day, an ED50 (Staph. aureus; phosphate buffer solution) of 157.9 mg/kg/day and an ED50 (Strep. pneumoniae; carboxymethylcellulose) of 7.9 mg/kg/day. The ED50 (Strep. pneumoniae; [10]) was 7.3 mg/kg/day, the ED50 (Strep. pneumoniae; phosphate buffer solution) was 9.3 mg/kg/day and the ED50 (Strep. pneumoniae; [11]) was 10.9 mg/kg/day.
